From patent US6693216B2, “Calcium double salts” (Nutrinova Nutrition Specialties & Food Ingredients GmbH, priority 2000, dated 2004)
Where two headings read alike, the source gives them in different places.

How the values were obtained:
[1] = system: Gram-negative bacteria; conditions: Part I, 1 g/l in apple juice pH 4.5, 25° C.
[2] = system: Molds I; conditions: Part I, 1 g/l in apple juice pH 4.5, 25° C.
[3] = system: Lactic acid bacteria; conditions: Part I, 1 g/l in apple juice pH 4.5, 25° C.
[4] = system: Bacilli; conditions: Part I, 1 g/l in apple juice pH 4.5, 25° C.
[5] = system: Yeasts; conditions: Part I, 1 g/l in apple juice pH 4.5, 25° C.
[6] = system: Thermophilic bacilli; conditions: Part I, 1 g/l in apple juice pH 4.5, 25° C.
[7] = sealed
From the text: Salts prepared as in example 1 were dried, stored under the specified conditions without the addition of other substances and checked at regular intervals visually for discoloration: […]

[8] = system: Clostridia; conditions: Part I, 1 g/l in apple juice pH 4.5, 25° C.
[9] = system: all microorganisms used
[10] = system: Gram-positive bacteria; conditions: Part I, 1 g/l in apple juice pH 4.5, 25° C.
[11] = system: Acetic acid bacteria; conditions: Part I, 1 g/l in apple juice pH 4.5, 25° C.
[12] = system: Molds II; conditions: Part I, 1 g/l in apple juice pH 4.5, 25° C.
[13] = 1 day after inoculation (1.5 × 10^4)
[14] = 3 days after inoculation (1.5 × 10^4)
[15] = 7 days after inoculation (1.5 × 10^4)
[16] = 14 days after inoculation (1.5 × 10^4)

Question: For `C/C=C/C=C/C(=O)[O-].CCC(=O)[O-].[Ca+2]` [calcium propionate sorbate], which “Number of surviving microorganisms per g of contaminated sample, Gram-negative bacteria” value ([1]; 1 day after inoculation (2.4 × 10^4)) is on record?
Answer: 3.5 × 10^4 CFU/g

Question: And the “Number of surviving microorganisms per g of contaminated sample, Gram-negative bacteria” value ([1]; 3 days after inoculation (2.4 × 10^4))?
Answer: 1.7 × 10^3 CFU/g

Question: What about the “Number of surviving microorganisms per g of contaminated sample, Gram-negative bacteria” value ([1]; 7 days after inoculation (2.4 × 10^4)) of the same compound?
Answer: 900 CFU/g

Question: What about the “Number of surviving microorganisms per g of contaminated sample, Gram-negative bacteria” value ([1]; 14 days after inoculation (2.4 × 10^4)) of the same compound?
Answer: <10 CFU/g

Question: What about the “Number of surviving microorganisms per g of contaminated sample, Molds I” value ([2]; 1 day after inoculation (1.7 × 10^4)) of the same compound?
Answer: 4.0 × 10^3 CFU/g

Question: And the “Number of surviving microorganisms per g of contaminated sample, Molds I” value ([2]; 3 days after inoculation (1.7 × 10^4))?
Answer: 700 CFU/g

Question: What about the “Number of surviving microorganisms per g of contaminated sample, Molds I” value ([2]; 7 days after inoculation (1.7 × 10^4)) of the same compound?
Answer: <100 CFU/g

Question: And the “Number of surviving microorganisms per g of contaminated sample, Molds I” value ([2]; 14 days after inoculation (1.7 × 10^4))?
Answer: <10 CFU/g

Question: What about the “Number of surviving microorganisms per g of contaminated sample, Lactic acid bacteria” value ([3]; 1 day after inoculation (1.9 × 10^4)) of the same compound?
Answer: 4.0 × 10^4 CFU/g

Question: What about the “Number of surviving microorganisms per g of contaminated sample, Lactic acid bacteria” value ([3]; 3 days after inoculation (1.9 × 10^4)) of the same compound?
Answer: 3.2 × 10^5 CFU/g

Question: And the “Number of surviving microorganisms per g of contaminated sample, Lactic acid bacteria” value ([3]; 7 days after inoculation (1.9 × 10^4))?
Answer: 2.4 × 10^3 CFU/g

Question: And the “Number of surviving microorganisms per g of contaminated sample, Lactic acid bacteria” value ([3]; 14 days after inoculation (1.9 × 10^4))?
Answer: 130 CFU/g

Question: What about the “Number of surviving microorganisms per g of contaminated sample, Bacilli” value (“Number … per g of contaminated sample, Bacilli” below) [4, 13] of the same compound?
Answer: 2.3 × 10^4 CFU/g

Question: What about the “Number … per g of contaminated sample, Bacilli” value [4, 14] of the same compound?
Answer: 1.4 × 10^3 CFU/g

Question: And the “Number … per g of contaminated sample, Bacilli” value [4, 15]?
Answer: 1.3 × 10^3 CFU/g

Question: And the “Number … per g of contaminated sample, Bacilli” value [4, 16]?
Answer: 50 CFU/g

Question: What about the “Number of surviving microorganisms per g of contaminated sample, Yeasts” value (shortened to “Number … per g of contaminated sample, Yeasts”) ([5]; 1 day after inoculation (2.5 × 10^4)) of the same compound?
Answer: 8.5 × 10^4 CFU/g

Question: And the “Number … per g of contaminated sample, Yeasts” value ([5]; 3 days after inoculation (2.5 × 10^4))?
Answer: 5.0 × 10^4 CFU/g

Question: And the “Number … per g of contaminated sample, Yeasts” value ([5]; 7 days after inoculation (2.5 × 10^4))?
Answer: 1.2 × 10^3 CFU/g

Question: And the “Number … per g of contaminated sample, Yeasts” value ([5]; 14 days after inoculation (2.5 × 10^4))?
Answer: 10 CFU/g

Question: What about the “Number of surviving microorganisms per g of contaminated sample, Thermophilic bacilli” value ([6]; 1 day after inoculation (1.3 × 10^4)) of the same compound?
Answer: 1.1 × 10^3 CFU/g

Question: What about the “Number of surviving microorganisms per g of contaminated sample, Thermophilic bacilli” value ([6]; 3 days after inoculation (1.3 × 10^4)) of the same compound?
Answer: <100 CFU/g

Question: And the “Number of surviving microorganisms per g of contaminated sample, Thermophilic bacilli” value ([6]; 7 days after inoculation (1.3 × 10^4))?
Answer: 10 CFU/g

Question: What about the “Number of surviving microorganisms per g of contaminated sample, Thermophilic bacilli” value ([6]; 14 days after inoculation (1.3 × 10^4)) of the same compound?
Answer: 5 CFU/g

Question: What about the “Time after yellow-brown discoloration of a 1% strength aqueous solution” value (“Time … of a 1% strength aqueous solution” below) ([7]; dark at 7° C.) of the same compound?
Answer: >12 months/>12 months

Question: What about the “Time after yellow-brown discoloration of the powder” value (from here on “Time … of the powder”) ([7]; dark at 7° C.) of the same compound?
Answer: 12 months/>12 months

Question: What about the “Time … of a 1% strength aqueous solution” value ([7]; dark at 25° C.) of the same compound?
Answer: >12 months/>12 months

Question: What about the “Time … of the powder” value ([7]; dark at 25° C.) of the same compound?
Answer: 12 months/>12 months

Question: What about the “Time … of a 1% strength aqueous solution” value ([7]; under sunlight at 7° C.) of the same compound?
Answer: 12 months/12 months

Question: And the “Time … of the powder” value ([7]; under sunlight at 7° C.)?
Answer: 12 months/12 months

Question: What about the “Time … of a 1% strength aqueous solution” value ([7]; under sunlight at 25° C.) of the same compound?
Answer: 12 months/12 months

Question: What about the “Time … of the powder” value ([7]; under sunlight at 25° C.) of the same compound?
Answer: 12 months/12 months

Question: What about the “Number of surviving microorganisms per g of contaminated sample, Clostridia” value ([8]; 1 day after inoculation (1.4 × 10^4)) of the same compound?
Answer: 1.3 × 10^3 CFU/g

Question: And the “Number of surviving microorganisms per g of contaminated sample, Clostridia” value ([8]; 3 days after inoculation (1.4 × 10^4))?
Answer: 800 CFU/g

Question: What about the “Number of surviving microorganisms per g of contaminated sample, Clostridia” value ([8]; 7 days after inoculation (1.4 × 10^4)) of the same compound?
Answer: 310 CFU/g

Question: And the “Number of surviving microorganisms per g of contaminated sample, Clostridia” value ([8]; 14 days after inoculation (1.4 × 10^4))?
Answer: 55 CFU/g

Question: And the “Antimicrobial activity (words, general statement)” value [9]?
Answer: inhibited particularly well

Question: And the “Preservative action against the microorganisms used” value ([9]; 1 g/l in apple juice pH 4.5, up to 14 days)?
Answer: acts well and persistently against all microorganisms used, except for bacilli

Question: What about the “Preservative action compared with the single salts” value ([9]; same concentration, 1 g/l in apple juice pH 4.5) of the same compound?
Answer: acts surprisingly better than potassium sorbate (used at the same concentration), in particular against lactic acid bacteria, thermophilic bacilli, yeasts and some molds (molds group II)

Question: What about the “Number of surviving microorganisms per g of contaminated sample, Gram-positive bacteria” value ([10]; 1 day after inoculation (2.6 × 10^4)) of the same compound?
Answer: 7.0 × 10^4 CFU/g

Question: And the “Number of surviving microorganisms per g of contaminated sample, Gram-positive bacteria” value ([10]; 3 days after inoculation (2.6 × 10^4))?
Answer: 7.0 × 10^3 CFU/g

Question: And the “Number of surviving microorganisms per g of contaminated sample, Gram-positive bacteria” value ([10]; 7 days after inoculation (2.6 × 10^4))?
Answer: 400 CFU/g

Question: What about the “Number of surviving microorganisms per g of contaminated sample, Gram-positive bacteria” value ([10]; 14 days after inoculation (2.6 × 10^4)) of the same compound?
Answer: <10 CFU/g

Question: And the “Number of surviving microorganisms per g of contaminated sample, Acetic acid bacteria” value ([11]; 1 day after inoculation (2.3 × 10^4))?
Answer: 7.5 × 10^4 CFU/g

Question: And the “Number of surviving microorganisms per g of contaminated sample, Acetic acid bacteria” value ([11]; 3 days after inoculation (2.3 × 10^4))?
Answer: 2.1 × 10^6 CFU/g

Question: What about the “Number of surviving microorganisms per g of contaminated sample, Acetic acid bacteria” value ([11]; 7 days after inoculation (2.3 × 10^4)) of the same compound?
Answer: 2.9 × 10^6 CFU/g

Question: What about the “Number of surviving microorganisms per g of contaminated sample, Acetic acid bacteria” value ([11]; 14 days after inoculation (2.3 × 10^4)) of the same compound?
Answer: 1.1 × 10^6 CFU/g

Question: And the “Number of surviving microorganisms per g of contaminated sample, Molds II” value (shortened to “Number … per g of contaminated sample, Molds II”) [12, 13]?
Answer: 1.1 × 10^3 CFU/g

Question: What about the “Number … per g of contaminated sample, Molds II” value [12, 14] of the same compound?
Answer: 80 CFU/g

Question: And the “Number … per g of contaminated sample, Molds II” value [12, 15]?
Answer: 50 CFU/g

Question: And the “Number … per g of contaminated sample, Molds II” value [12, 16]?
Answer: <10 CFU/g
